The record followed here is patent US20170150719A1, “FUNGICIDAL PYRAZOLES AND THEIR MIXTURES” (E I DU PONT DE NEMOURS AND COMPANY, priority 2010, published 2017).

In test [1] the test system is Septoria tritici. The test is described as follows: Test M (M1-M5): wheat leaf blotch, Compound 81 alone and in mixtures, observed and Colby expected control. The format is in vivo.
Test [2] relates to Puccinia recondita f sp. tritici. Description: Test L (L1-L5): wheat leaf rust, Compound 81 alone and in mixtures, observed and Colby expected control. The format is in vivo. The note with it: for Test L5 Obsd, disease control rating: wheat leaf rust.
In test [3] the test system is Blumeria graminis f. sp. tritici. The test is described as follows: Test K (K1-K5): wheat powdery mildew, Compound 81 alone and in mixtures, observed and Colby expected control. It is filed as in vivo. The note with it: for Test K5 Obsd, disease control rating: wheat powdery mildew.
The test system of the next test is Botrytis cinerea. The test is described as follows: Test A: tomato Botrytis, preventive spray on tomato seedlings, visual disease rating. The note with it: 100 = 100% disease control; for Test A rating (% disease control): preventive spray, 0 = no control relative to controls, rating without asterisk.
For test [4], the system named is Puccinia recondita f. sp. tritici. The test is described as follows: Test G: wheat leaf rust, spray after inoculation (curative) on wheat seedlings, visual disease rating. It is filed as in vivo. As to conditions: 100 = 100% disease control; for Test G rating (% disease control): spray after inoculation, rating without asterisk. From the text:
(§1) A hyphen (-) indicates no test results.

Test [5] has as its system Septoria tritici. Description: Test F: wheat leaf blotch, preventive spray on wheat seedlings, visual disease rating. As to conditions: 100 = 100% disease control; for Test F rating (% disease control): preventive spray, rating without asterisk. The format is in vivo.
Excerpt: as §1

In the next test the test system is Alternaria solani. Description: Test B: tomato early blight, preventive spray on tomato seedlings, visual disease rating. As to conditions: for Test B rating (% disease control): preventive spray, rating without asterisk.
The test system of test [6] is Blumeria graminis f. sp. tritici. Description: Test I: wheat powdery mildew, preventive spray on wheat seedlings, visual disease rating. As to conditions: 100 = 100% disease control; for Test I rating (% disease control): preventive spray, rating without asterisk.
The subject of test [7] is Puccinia recondita f. sp. tritici. Description: Test H: wheat leaf rust, preventive spray on wheat seedlings, visual disease rating. As to conditions: 100 = 100% disease control; for Test H rating (% disease control): preventive spray, rating without asterisk.
A further test relates to Septoria nodorum. Description: Test E: Septoria glume blotch, preventive spray on wheat seedlings, visual disease rating. As to conditions: 100 = 100% disease control; for Test E rating (% disease control): Septoria glume blotch on wheat, preventive spray, rating without asterisk.
The mark [8] stands for this setting: tomato early blight, 100 = 100% disease control.
Where [9] appears, read: sprayed after inoculation, 0 = no disease control.

With `Cn1cc(C(=O)Nc2ccc(F)cc2-c2ccc(Cl)c(Cl)c2)c(C(F)F)n1` [bixafen], the “Test M2 Obsd, disease control rating” value is recorded as 0% in the test on Septoria tritici [1] (component (b) 0.08 ppm alone), 33% in the test on Septoria tritici [1] (component (b) 0.4 ppm alone) and 89% in the test with Septoria tritici [1] (component (b) 2 ppm alone). Besides, the “Test L3 Obsd” value was 9% in test [2] (component (b) 0.08 ppm alone), 88% in test [2] (component (b) 0.4 ppm alone), 99% in test [2] (component (b) 2 ppm alone) and 100% in test [2] (component (b) 10 ppm alone). Besides, the “Test K3 Obsd” value in test [3] (component (b) 0.08 ppm alone) is on record as 0%; in test [3] (component (b) 0.4 ppm alone), 0%; in test [3] (component (b) 2 ppm alone) it was 64%; in test [3] (component (b) 10 ppm alone), 99%.
On to `C=CCOC1=NS(=O)(=O)c2ccccc21` [probenazole], for which the “Test M1 Obsd, disease control rating” value in the test with Septoria tritici [1] (component (b) 10 ppm alone), in the test on Septoria tritici [1] (component (b) 40 ppm alone) and in the test on Septoria tritici [1] (component (b) 200 ppm alone) was 0% throughout. Besides, the “Test L1 Obsd” value is 9% in test [2] (component (b) 10 ppm alone), 18% in [2] (component (b) 40 ppm alone) and 18% in test [2] (component (b) 200 ppm alone). Moreover, the entries for the “Test K1 Obsd” value in [3] (component (b) 10 ppm alone), in [3] (component (b) 40 ppm alone) and in test [3] (component (b) 200 ppm alone) were 68%, 21% and 71%, respectively.
Regarding `CC(C)CC(C)c1sccc1NC(=O)c1cn(C)nc1C(F)(F)F` (stereo not shown) [penthiopyrad], the “Test M2 Obsd, disease control rating” value in the test with Septoria tritici [1] (component (b) 0.08 ppm alone) and in the test with Septoria tritici [1] (component (b) 0.4 ppm alone) was 0% in each case. Also, the “Test L5 Obsd, disease control rating” value amounted to 9% in [2] (component (b) 0.016 ppm alone), 55% in test [2] (component (b) 0.08 ppm alone), 68% in test [2] (component (b) 0.4 ppm alone) and 99% in [2] (component (b) 2 ppm alone). In addition, the “Test K3 Obsd” value in [3] (component (b) 0.08 ppm alone) stood at 0%; in [3] (component (b) 0.4 ppm alone), 0%; in test [3] (component (b) 2 ppm alone), 99%; in [3] (component (b) 10 ppm alone) it was 100%.
`Fc1ccc(Oc2ccnc3cc(Cl)cc(Cl)c23)cc1` [quinoxyfen]: the “Test M5 Obsd disease control rating” value in the test with Septoria tritici [1] (component (b) alone 10 ppm) is given as 0%; with Septoria tritici [1] (component (b) alone 40 ppm), 0%; in the test on Septoria tritici [1] (component (b) alone 200 ppm), 8%. Moreover, the “Test L1 Obsd” value in [2] (component (b) 10 ppm alone), in test [2] (component (b) 40 ppm alone) and in [2] (component (b) 200 ppm alone) was 0% throughout. Moreover, the “Test K5 Obsd, disease control rating” value was 21% in test [3] (component (b) 0.016 ppm alone), 29% in test [3] (component (b) 0.08 ppm alone), 64% in test [3] (component (b) 0.4 ppm alone) and 93% in test [3] (component (b) 2 ppm alone).
Take `CC(C1CC1)C(O)(Cn1cncn1)c1ccc(Cl)cc1` (stereo not shown) [cyproconazole]: the “Test M2 Obsd, disease control rating” value with Septoria tritici [1] (component (b) 0.4 ppm alone) was 0%; in the test on Septoria tritici [1] (component (b) 2 ppm alone), 0%; in the test on Septoria tritici [1] (component (b) 10 ppm alone) it was 0%; in the test on Septoria tritici [1] (component (b) 40 ppm alone) it was 98%. Moreover, the “Test L5 Obsd, disease control rating” value in [2] (component (b) 0.016 ppm alone) is listed as 27%; in [2] (component (b) 0.08 ppm alone), 80%; in test [2] (component (b) 0.4 ppm alone), 92%; in [2] (component (b) 2 ppm alone), 100%. Also, the “Test K5 Obsd, disease control rating” value in test [3] (component (b) 0.016 ppm alone) was determined as 64%; in [3] (component (b) 0.08 ppm alone), 64%; in test [3] (component (b) 0.4 ppm alone) it was 79%; in test [3] (component (b) 2 ppm alone), 96%.
With `CC(C)C1C2CCC1c1c(NC(=O)c3cn(C)nc3C(F)F)cccc12` (stereo not shown) [isopyrazam], the “Test M2 Obsd, disease control rating” value with Septoria tritici [1] (component (b) 0.08 ppm alone) was 0%; in the test on Septoria tritici [1] (component (b) 0.4 ppm alone), 77%; with Septoria tritici [1] (component (b) 2 ppm alone) it was 93%; in the test with Septoria tritici [1] (component (b) 10 ppm alone), 100%. The “Test L5 Obsd, disease control rating” value came to 68% in test [2] (component (b) 0.016 ppm alone), 89% in test [2] (component (b) 0.08 ppm alone), 100% in [2] (component (b) 0.4 ppm alone) and 100% in test [2] (component (b) 2 ppm alone). Also, the “Test K3 Obsd” value in test [3] (component (b) 0.08 ppm alone) is given as 0%; in [3] (component (b) 0.4 ppm alone), 50%; in [3] (component (b) 2 ppm alone), 99%; in test [3] (component (b) 10 ppm alone), 99%.
`CCCN(CC)CC1COC2(CCC(C(C)(C)C)CC2)O1` (stereo not shown) [spiroxamine]: the “Test M5 Obsd disease control rating” value in the test with Septoria tritici [1] (component (b) alone 10 ppm) was 0%; in the test on Septoria tritici [1] (component (b) alone 40 ppm) it was 3%; with Septoria tritici [1] (component (b) alone 200 ppm), 0%. In addition, the “Test K3 Exp” value in test [3] (component (b) 0.4 ppm alone) came out at 0%; in [3] (component (b) 2 ppm alone) it was 0%; in test [3] (component (b) 10 ppm alone), 0%; in test [3] (component (b) 40 ppm alone) it was 91%. Moreover, the “Test K3 Obsd” value was 0% in test [3] (component (b) 0.4 ppm alone), 0% in [3] (component (b) 2 ppm alone), 0% in [3] (component (b) 10 ppm alone) and 99% in test [3] (component (b) 40 ppm alone).
With `CC1CCN(c2c(-c3c(F)cc(F)cc3F)c(Cl)nc3ncnn23)CC1` [BAS600, 5-chloro-6-(2,4,6-trifluorophenyl)-7-(4-methylpiperidin-1-yl)[1,2,4]triazolo[1,5-a]pyrimidine], the “Test M2 Obsd, disease control rating” value in the test with Septoria tritici [1] (component (b) 0.016 ppm alone) amounted to 0%; with Septoria tritici [1] (component (b) 0.08 ppm alone) it was 0%; in the test with Septoria tritici [1] (component (b) 0.4 ppm alone) it was 93%; in the test on Septoria tritici [1] (component (b) 2 ppm alone) it was 100%. Besides, the “Test L3 Obsd” value is on record as 74% in [2] (component (b) 0.08 ppm alone), 88% in test [2] (component (b) 0.4 ppm alone), 99% in test [2] (component (b) 2 ppm alone) and 100% in [2] (component (b) 10 ppm alone). Further, the “Test K3 Obsd” value in [3] (component (b) 0.08 ppm alone) was found to be 0%; in [3] (component (b) 0.4 ppm alone) it was 0%; in test [3] (component (b) 2 ppm alone), 96%; in test [3] (component (b) 10 ppm alone), 100%.
As for `Cc1nn(C)c(Nc2c(F)cc(Cl)cc2Cl)c1-c1ccc(Cl)cc1F` [compound 231], the “Test A rating (% disease control)” value with Botrytis cinerea (tomato Botrytis) worked out at 33%. The “Test G rating (% disease control)” value in test [4] amounted to 9%. Further, in the test with Septoria tritici [5], the “Test F rating (% disease control)” value is given as 100%. For the same compound, the “Test B rating (% disease control)” value with Alternaria solani (setting [8]) was found to be 58%. The “Test I rating (% disease control)” value in test [6] (wheat powdery mildew) worked out at 99%. Moreover, the “Test H rating (% disease control)” value in test [7] (wheat leaf rust) is reported as 94%. Moreover, the “Test E rating (% disease control)” value in the test with Septoria nodorum turned out to be 0%.
Turning to `Cc1nn(C)c(Nc2c(Cl)cc(Br)cc2Cl)c1-c1ccc(F)cc1Cl` [compound 164], the “Test A rating (disease control)” value in the test on Botrytis cinerea (tomato Botrytis, 0 = no disease control relative to the controls) stood at 99%. For the same compound, the “Test G rating (disease control)” value in test [4] (setting [9]) worked out at 99%. Also, in the test on Septoria tritici [5] (0 = no disease control relative to the controls), the “Test F rating (disease control)” value came out at 100%. For the same compound, the “Test B rating (disease control)” value with Alternaria solani (tomato early blight, 100 = 100% disease control, 0 = no disease control relative to the controls) is 0%. In addition, the “Test I rating (disease control)” value in test [6] (wheat powdery mildew, 0 = no disease control relative to the controls) was 99%. The “Test H rating (disease control)” value in test [7] (wheat leaf rust, sprayed the day before inoculation, 0 = no disease control) stood at 100%. Moreover, in the test on Septoria nodorum (Septoria glume blotch, 0 = no disease control relative to the controls), the “Test E rating (disease control)” value is recorded as 0%.
In the case of `Cc1nn(C)c(Nc2ccc(F)cc2Br)c1-c1ccc(F)cc1F` [Compound 118, N-(2-bromo-4-fluorophenyl)-4-(2,4-difluorophenyl)-1,3-dimethyl-1H-pyrazol-5-amine], the pest or weed control at 200 µg/mL in the test on Botrytis cinerea (Botrytis cinerea, in Solanum lycopersicum, read-out: Test A rating (disease control), tomato Botrytis, 0 = no disease control relative to the controls) came out at 100%; in [4] (setting [9]), 75%; in the test with Septoria tritici [5] (Zymoseptoria tritici, 0 = no disease control relative to the controls), 100%; in the test on Alternaria solani (Alternaria solani, in Solanum lycopersicum, read-out: Test B rating (disease control)), 93%; in test [6] (Blumeria graminis, in Triticum aestivum, read-out: Test I rating (disease control), wheat powdery mildew, 0 = no disease control relative to the controls) it was 100%; in test [7] (read-out: Test H rating (disease control), wheat leaf rust, sprayed the day before inoculation, 0 = no disease control) it was 97%. Further, the pest or weed control at 200 µg/mL in the test with Septoria nodorum (Parastagonospora nodorum, in Triticum aestivum, read-out: Test E rating (disease control), Septoria glume blotch, 0 = no disease control relative to the controls) was found to be 69%.
For `Cc1nn(C)c(Nc2ccc(Br)cc2Br)c1-c1ccc(F)cc1F` [compound 184], the “Test A rating (% disease control)” value in the test on Botrytis cinerea (tomato Botrytis) was 100%. In test [4], the “Test G rating (% disease control)” value stood at 0%. The “Test F rating (% disease control)” value in the test with Septoria tritici [5] is on record as 100%. In the test on Alternaria solani (setting [8]), the “Test B rating (% disease control)” value came to 58%. The “Test I rating (% disease control)” value in [6] (wheat powdery mildew) was 100%. Moreover, the “Test H rating (% disease control)” value in test [7] (wheat leaf rust) is given as 98%. The “Test E rating (% disease control)” value with Septoria nodorum is 60%.
